Laboratory results from patent US20260078089A1, “BIOACTIVE PHYTOCHEMICALS IN ZIZYPHUS AND GUARANA” (Phytoquest Limited, priority 2018, published 2026).

Tests used:
[1] = test system: sialidase of P. gingivalis homogenate; experiment: Sialidase activity of homogenate of P. gingivalis; type: biochemical, Porphyromonas gingivalis; details: 2 mM Zanamivir; 1500 μg/ml Zizyphus
Experimental: (§1) MU release can be used to quantify sialidase activity.
(§2) Whole bacteria or purified sialidases were exposed to MUNANA, in the presence or absence of compound 1 (Example 3) or Zizyphus fruit 50% aqueous ethanol extract containing 1% of the N-methyl-prolines.
(§3) […] Reactions were stopped at 30 seconds and 60 seconds via addition of ph 10.5 60 mM sodium carbonate buffer. Release of fluorogenic MU was quantified by measuring fluorescence emission at 450 nm, excitation 350 nm. Percentage sialidase activity was expressed as the change in fluorescence between 30 seconds and 60 seconds compared to that of a reaction without inhibitor. Reactions were carried out in triplicate.

[2] = test system: N1Neu; experiment: N1Neu sialidase inhibition screen; type: biochemical; details: 2 mM Zanamivir; 1500 ug Zizyphus extract; 10 minute time point
Experimental: An initial screen of N1Neu inhibition using a variety of compounds and the commercially available sialidase (neuraminidase) inhibitor Zanamivir (which is sold in the pharmaceutical preparation “Relenza™” as a treatment for flu) was performed.
Sialidase assays were performed, reactions contained 0.1 mM MUNANA, pH 7.4 50 mM Tris, 5 mM CaCl2), 200 mM NaCl, plant extract or the control sialidase inhibitor Zanamivir at the concentrations indicated, or no putative inhibitor. N1Neu was present at 0.025 μg/ml in reactions. 50 μl of these reactions were quenched using 100 μl of 100 mM sodium carbonate buffer, pH 10.5, at 5 minutes and 10 minutes. The 10 minute time point was used to assess sialidase activity. Data shown represent the mean of one experiment, where each condition was repeated in triplicate. MU present in quenched reactions was quantified using TECAN M200 Infinite microplate reader at excitation 340 nm emission 430 nm, and expressed as the percentage of sialidase activity (MU fluorescence) relative to the no inhibitor condition.

[3] = test system: sialidase of T. forsythia homogenate; experiment: Sialidase activity of homogenate of T. forsythia; type: biochemical, Tannerella forsythia; details: 2 mM Zanamivir; 1500 μg/ml Zizyphus
Experimental: as §1, §2, §3

## CC(=O)N[C@H]1[C@H]([C@H](O)[C@H](O)CO)OC(C(=O)O)=C[C@@H]1N=C(N)N [Zanamivir]
[1]
  % inhibition: 51%
[2]
  % inhibition: 100%
[3]
  % inhibition: 22%
